Reference: patent US20020037311A1, “Transdermal delivery of lasofoxifene” (priority 2000, published 2002)
Where “and” joins values, the source holds several entries; their conditions need not be identical. Identical values can stand only once. Like-named read-outs stand apart in the source and are kept apart here.

Columns and labels:
[1] = compared with estradiol therapy; cited from earlier work
[2] = In vitro skin flux, adhesive matrix systems, modified Franz diffusion cells; format: in vitro ADME, human; conditions: for Average Daily Flux of CP-336,156 over 7 Days: Example 1 matrix TSR 58 adhesive/triacetin/CP-336,156 84/10/6% w/w; for Cumulative Permeation of CP-336,156 over 24 Hours, Enhanced 1.5% w/w NaLG: Example 2 matrix Morstik 214, 3% w/w CP-336,156 tartrate salt + 1.5% w/w sodium lauroyl glycolate; for Cumulative Permeation of CP-336,156 over 24 Hours, Unenhanced: Example 2 matrix Morstik 214 water-based adhesive, 3% w/w CP-336,156 tartrate salt, no enhancer; for Enhancement Factor Q24 enhanced/Q24 unenhanced: Example 2 matrix, 1.5% w/w NaLG vs unenhanced
Method: Pressure sensitive adhesive matrix systems prepared according to the teachings of U.S. Pat. No. 5,952,000, incorporated herein by reference. First, the solids content of the adhesive solution (water or organic solvent based) was determined by placing a known weight of solution in a weighed aluminum dish and evaporating the solvents overnight in a 70. degree. C. convection oven. The solid adhesive content of the solution was calculated by dividing the adhesive solid weight after drying by the initial total solution weight. Next, a weighed quantity of adhesive solution was added to a glass bottle and the drug substance, permeation enhancer, and other excipients were weighed and added to the adhesive solution in a quantity necessary to achieve the desired dry matrix film composition. The solution containing the adhesive polymer, drug substance, and other excipients as necessary was then mixed overnight. After mixing, approximately 8 ml of the solution was dispensed on a silanized polyester release liner and film cast using a casting knife with a gap size appropriate to achieve a final dried thickness of approximately 0.05 mm. The cast film was dried in a 70° C. convection oven until all solvents had evaporated to yield a dried matrix (15 minutes for organic solvent based adhesives, 30 minutes for water emulsion based adhesives). Finally, an 0.08 mm thick occlusive polyethylene backing film was laminated onto the dried adhesive matrix, and these systems were then used to conduct in vitro skin flux experiments as described below.
(§1) In vitro skin flux studies were conducted using human cadaver epidermal membrane in modified Franz non-jacketed diffusion cells. The epidermal membrane (stratum corneum and epidermis) was separated from whole skin (epidermal membrane and dermis) by the method of Kligman and Christopher (Arch. Dermatol. 88:702 (1963)). This method involves the exposure of the full-thickness skin to water at 60.degree C. for a time period of 60 seconds. After this period, the epidermal membrane was gently peeled off the dermis and stored for later use in aluminum foil at −5° C.
Prior to each permeation experiment with a matrix system, the matrix system was cut into a circular sample of 0.7 cm^2 area and the silanized release liner was removed. The adhesive was affixed to the stratum corneum side of the thawed epidermal membrane which was then cut to an appropriate size and clamped in place between the two halves of the diffusion cell with the stratum corneum facing the donor compartment. The receiver compartment was filled with water or an aqueous solution appropriate to maintain sink conditions for the drug. All receiver solutions included 0.02% (w/w) sodium azide (NaN3) to inhibit bacterial growth. The diffusion cell was placed in a temperature controlled circulating water bath calibrated to maintain the surface temperature of the skin at 32° C. The receiver compartment was constantly stirred by a magnetic stir-bar in the receiver compartment agitated by a magnetic stirring module placed under the water bath.
(§2) The following sampling procedure was used for all dosage forms. At predetermined sampling time points, the entire contents of the receiver compartment were collected for drug quantitation and the receiver compartment was filled with fresh solution, taking care to eliminate any air bubbles at the skin/solution interface. […]

[3] = female and male rats; cited from earlier work
[4] = postmenopausal women; cited from earlier work
[5] = ovariectomized rats; cited from earlier work
[6] = In vitro skin flux, hydroalcoholic gels (liquid reservoir), finite occluded dose, modified Franz diffusion cells; format: in vitro ADME, human; conditions: for Average Daily Flux of CP-336,156 over 7 Days: Example 3 gel EtOH/H2O/Gly/GMO/ML 50/15/30/2.5/2.5% v/v, CP-336,156 tartrate salt 2 mg/ml; for Average Daily Flux of CP-336,156 over 6 Days: Example 4 gel EtOH/H2O/Gly/GMO/LA 30/38/30/1/1% v/v (two-phase dispersion); for Average Daily Flux of CP-336,156 over 6 Days / Average Daily flux over 7 Days, Unenhanced 0% GMO / Average Daily flux over 7 Days, 0.03% GMO / Average Daily flux over 7 Days, 0.06% GMO / Average Daily flux over 7 Days, 0.12% GMO: CP-336,156 tartrate salt 6 mg/ml; for Average Daily flux over 7 Days, Unenhanced 0% GMO: Example 5 gel EtOH/IPA/H2O/Gly 26.25/8.75/35/30% v/v; for Average Daily flux over 7 Days, 0.03% GMO / Average Daily flux over 7 Days, 0.06% GMO / Average Daily flux over 7 Days, 0.12% GMO: Example 5 gel EtOH/IPA/H2O/Gly; for Average Daily flux over 7 Days, 0.03% GMO: 0.03% v/v glycerol monooleate; for Average Daily flux over 7 Days, 0.06% GMO: 0.06% v/v glycerol monooleate; for Average Daily flux over 7 Days, 0.12% GMO: 0.12% v/v glycerol monooleate (cloudy dispersion); for E = Enhancement Factor = Average Daily Flux from Enhanced Formulation/Average Daily Flux from Unenhanced Control: Example 5 gel
Method: Hydroalcoholic gels were prepared on a 10 ml scale as follows. Ethyl alcohol (190 proof ethanol), water, glycerin, enhancer and drug were combined in the appropriate proportions and mixed for several hours. The gelling agent (hydroxypropylcellulose) was added and the solution was mixed briefly at high shear, then mixed at low shear until a gel was formed.
as §1
Permeation experiments with hydroalcoholic gels were performed using finite occluded doses. The occluded dose is an appropriate in vitro model for the application of a transdermal patch drug delivery system containing a liquid or gel reservoir.
Occluded dosing experiments were set-up according to the following procedure. Prior to skin permeation experiments, the epidermal membrane was cut to an appropriate size and placed between the two halves of the diffusion cell with the epidermal side facing the receiver compartment. The receiver compartment was filled with an appropriate solution then the diffusion cell was placed in a circulating water bath calibrated to maintain the temperature of the skin surface at 32° C. and allowed to hydrate overnight. After hydration, a sample of the gel (75 µl) was pipetted into a cavity created by placing a polyethylene washer over the stratum corneum surface. This cavity was covered with an occlusive backing film which was clamped in place.
as §2

[7] = male rats; cited from earlier work
[8] = second skin source (name not given), 5 cells
[9] = third skin source (name not given), 5 cells

Average Daily Flux of CP-336,156 over 7 Days ([2]; All Skins, Mean ± SEM): 8.6 ± 1.2 µg/cm²/day
Average Daily Flux of CP-336,156 over 7 Days ([2]; Skin 1B, 4 diffusion cells): 5.7 ± 0.8 µg/cm²/day
Average Daily Flux of CP-336,156 over 7 Days ([2]; Skin 1C, 8 diffusion cells): 9.2 ± 2.9 µg/cm²/day
Average Daily Flux of CP-336,156 over 7 Days ([2]; Skin 1D, 4 diffusion cells): 13.4 ± 7.8 µg/cm²/day
Average Daily Flux of CP-336,156 over 7 Days ([2]; Skin 1E, 4 diffusion cells): 10.2 ± 3.4 µg/cm²/day
Average Daily Flux of CP-336,156 over 7 Days ([2]; Skin 1F, 4 diffusion cells): 5.1 ± 1.1 µg/cm²/day
Average Daily Flux of CP-336,156 over 7 Days ([2]; Skin 1G, 4 diffusion cells): 11.4 ± 2.4 µg/cm²/day
Average Daily Flux of CP-336,156 over 7 Days ([2]; Skin IA, 7 diffusion cells): 5.5 ± 3.4 µg/cm²/day
Cumulative Permeation of CP-336,156 over 24 Hours, Enhanced 1.5% w/w NaLG ([2]; All Skins Mean ± SEM): 1.42 ± 1.05 μg/cm^2/24 h
Cumulative Permeation of CP-336,156 over 24 Hours, Enhanced 1.5% w/w NaLG ([2]; Skin 2A, 5 cells): 0.30 ± 0.12 μg/cm^2/24 h
Cumulative Permeation of CP-336,156 over 24 Hours, Enhanced 1.5% w/w NaLG [2, 8]: 3.51 ± 0.93 μg/cm^2/24 h
Cumulative Permeation of CP-336,156 over 24 Hours, Enhanced 1.5% w/w NaLG [2, 9]: 0.46 ± 0.16 μg/cm^2/24 h
Cumulative Permeation of CP-336,156 over 24 Hours, Unenhanced ([2]; All Skins Mean ± SEM): 0.99 ± 0.85 μg/cm^2/24 h
Cumulative Permeation of CP-336,156 over 24 Hours, Unenhanced ([2]; Skin 2A, 5 cells): 0.13 ± 0.09 μg/cm^2/24 h
Cumulative Permeation of CP-336,156 over 24 Hours, Unenhanced [2, 8]: 2.70 ± 1.08 μg/cm^2/24 h
Cumulative Permeation of CP-336,156 over 24 Hours, Unenhanced [2, 9]: 0.15 ± 0.09 μg/cm^2/24 h
Enhancement Factor Q24 enhanced/Q24 unenhanced ([2]; All Skins Mean ± SEM): 2.2 and 2.21 ± 0.51
Enhancement Factor Q24 enhanced/Q24 unenhanced ([2]; Skin 2A): 2.28
Enhancement Factor Q24 enhanced/Q24 unenhanced ([2]; second skin source (name not given)): 1.30
Enhancement Factor Q24 enhanced/Q24 unenhanced ([2]; third skin source (name not given)): 3.06
Average Daily Flux of CP-336,156 over 7 Days ([6]; All Skins, Mean ± SEM): 21.6 ± 2.3 ug/cm^2/day
Average Daily Flux of CP-336,156 over 7 Days ([6]; Skin 3A, 8 cells): 174 ± 7.7 ug/cm^2/day
Average Daily Flux of CP-336,156 over 7 Days ([6]; Skin 3B, 4 cells): 15.3 ± 8.7 ug/cm^2/day
Average Daily Flux of CP-336,156 over 7 Days ([6]; Skin 3C, 8 cells): 23.9 ± 11.0 ug/cm^2/day
Average Daily Flux of CP-336,156 over 7 Days ([6]; Skin 3D, 4 cells): 27.9 ± 2.2 ug/cm^2/day
Average Daily Flux of CP-336,156 over 7 Days ([6]; Skin 3E, 4 cells): 21.2 ± 9.9 ug/cm^2/day
Average Daily Flux of CP-336,156 over 7 Days ([6]; Skin 3F, 4 cells): 15.4 ± 7.2 ug/cm^2/day
Average Daily Flux of CP-336,156 over 7 Days ([6]; Skin 3G, 4 cells): 30.3 ± 4.9 ug/cm^2/day
Average Daily Flux of CP-336,156 over 6 Days ([6]; All Skins, Mean ± SEM): 38.3 ± 3.3 ug/cm^2/day
Average Daily Flux of CP-336,156 over 6 Days ([6]; Skin 4A, 5 cells): 42.4 ± 15.5 ug/cm^2/day
Average Daily Flux of CP-336,156 over 6 Days ([6]; Skin 4B, 5 cells): 36.3 ± 5.2 ug/cm^2/day
Average Daily Flux of CP-336,156 over 6 Days ([6]; Skin 4C, 5 cells): 36.2 ± 14.9 ug/cm^2/day
Average Daily flux over 7 Days, Unenhanced 0% GMO ([6]; All Skins): 11.8 ug/cm^2/24 h
Average Daily flux over 7 Days, Unenhanced 0% GMO ([6]; Skin 5A, n = 2-5 cells): 6.4 ug/cm^2/24 h
Average Daily flux over 7 Days, Unenhanced 0% GMO ([6]; Skin 5B, n = 2-5 cells): 17.4 ug/cm^2/24 h
Average Daily flux over 7 Days, Unenhanced 0% GMO ([6]; Skin 5C, n = 2-5 cells): 11.6 ug/cm^2/24 h
Average Daily flux over 7 Days, 0.03% GMO ([6]; All Skins): 33.0 ug/cm^2/24 h
Average Daily flux over 7 Days, 0.03% GMO ([6]; Skin 5A, n = 2-5 cells): 7.1 ug/cm^2/24 h
Average Daily flux over 7 Days, 0.03% GMO ([6]; Skin 5B, n = 2-5 cells): 69.5 ug/cm^2/24 h
Average Daily flux over 7 Days, 0.03% GMO ([6]; Skin 5C, n = 2-5 cells): 22.4 ug/cm^2/24 h
Average Daily flux over 7 Days, 0.06% GMO ([6]; All Skins): 35.6 ug/cm^2/24 h
Average Daily flux over 7 Days, 0.06% GMO ([6]; Skin 5A, n = 2-5 cells): 11.6 ug/cm^2/24 h
Average Daily flux over 7 Days, 0.06% GMO ([6]; Skin 5B, n = 2-5 cells): 74.9 ug/cm^2/24 h
Average Daily flux over 7 Days, 0.06% GMO ([6]; Skin 5C, n = 2-5 cells): 20.3 ug/cm^2/24 h
Average Daily flux over 7 Days, 0.12% GMO ([6]; All Skins): 41.8 Ug/cm^2/24 h
Average Daily flux over 7 Days, 0.12% GMO ([6]; Skin 5A, n = 2-5 cells): 16.8 Ug/cm^2/24 h
Average Daily flux over 7 Days, 0.12% GMO ([6]; Skin 5B, n = 2-5 cells): 85.2 Ug/cm^2/24 h
Average Daily flux over 7 Days, 0.12% GMO ([6]; Skin 5C, n = 2-5 cells): 23.6 Ug/cm^2/24 h
E = Enhancement Factor = Average Daily Flux from Enhanced Formulation/Average Daily Flux from Unenhanced Control ([6]; 0.03% GMO vs 0% GMO, All Skins): 2.34 ± 0.37
E = Enhancement Factor = Average Daily Flux from Enhanced Formulation/Average Daily Flux from Unenhanced Control ([6]; 0.03% GMO vs 0% GMO, Skin 5A): 1.12
E = Enhancement Factor = Average Daily Flux from Enhanced Formulation/Average Daily Flux from Unenhanced Control ([6]; 0.03% GMO vs 0% GMO, Skin 5B): 3.99
E = Enhancement Factor = Average Daily Flux from Enhanced Formulation/Average Daily Flux from Unenhanced Control ([6]; 0.03% GMO vs 0% GMO, Skin 5C): 1.93
E = Enhancement Factor = Average Daily Flux from Enhanced Formulation/Average Daily Flux from Unenhanced Control ([6]; 0.06% GMO vs 0% GMO, All Skins): 2.62 ± 0.43
E = Enhancement Factor = Average Daily Flux from Enhanced Formulation/Average Daily Flux from Unenhanced Control ([6]; 0.06% GMO vs 0% GMO, Skin 5A): 1.81
E = Enhancement Factor = Average Daily Flux from Enhanced Formulation/Average Daily Flux from Unenhanced Control ([6]; 0.06% GMO vs 0% GMO, Skin 5B): 4.30
E = Enhancement Factor = Average Daily Flux from Enhanced Formulation/Average Daily Flux from Unenhanced Control ([6]; 0.06% GMO vs 0% GMO, Skin 5C): 1.74
E = Enhancement Factor = Average Daily Flux from Enhanced Formulation/Average Daily Flux from Unenhanced Control ([6]; 0.12% GMO vs 0% GMO, All Skins): 3.18 ± .36
E = Enhancement Factor = Average Daily Flux from Enhanced Formulation/Average Daily Flux from Unenhanced Control ([6]; 0.12% GMO vs 0% GMO, Skin 5A): 2.62
E = Enhancement Factor = Average Daily Flux from Enhanced Formulation/Average Daily Flux from Unenhanced Control ([6]; 0.12% GMO vs 0% GMO, Skin 5B): 4.89
E = Enhancement Factor = Average Daily Flux from Enhanced Formulation/Average Daily Flux from Unenhanced Control ([6]; 0.12% GMO vs 0% GMO, Skin 5C): 2.03
SMILES: Oc1ccc2c(c1)CC[C@H](c1ccccc1)[C@@H]2c1ccc(OCCN2CCCC2)cc1 [CP-336,156, lasofoxifene]
uterine-stimulating effects [1]: without the uterine-stimulating effects
total serum cholesterol [3]: decreased
bone loss [4]: prevent bone loss
bone loss [5]: prevent bone loss
effect on prostate [7]: did not affect prostate
